Results taken from patent publication US20030215930A1, “Genes involved in cyclododecanone degradation pathway” (priority 2002, published 2003).

What was measured:
[1] = test system: Rhodococcus ruber SC1; experiment: Growth of Rhodococcus ruber SC1 on cyclic ketones as sole carbon and energy source; assay type: cell-based; conditions: cyclic ketone as sole carbon and energy source
Procedure: Synthetic S12 medium was used to establish enrichment. S12 medium contains the following: 10 mM ammonium sulfate, 50 mM potassium phosphate buffer (pH 7.0), 2 mM MgCl2, 0.7 mM CaCl2, 50 μM MnCl2, 1 μM FeCl3, 1 μM […], 1.72 μM CuSO4, 2.53 μM CoCl2, 2.42 μM […], and 0.0001% FeSO4. The carbon sources were added directly to the S12 medium and the bacteria were grown in sealed culture flasks.
S12 agar was used to test isolates that utilize compounds as the sole source of carbon and energy. S12 agar was prepared by adding 1.5% Noble agar (DIFCO) to S12 medium. Bacteria growing on S12 agar were supplied with volatile compounds such as cyclododecanone by sprinkling solids of the volatile compound on the interior of the petri dish lid or 5 μl of other volatile liquid as vapor. The petri dish was sealed with parafilm and incubated with the lid on the bottom.
Rhodococcus ruber SC1 isolated from cyclododecanone (C12 cyclic ketone) enrichment culture was also tested for growth on cyclic ketones of different carbon numbers as sole carbon and energy source (Table 3). It grows well on cyclopentadecanone (C15 cyclic ketone), cyclotridecanone (C13 cyclic ketone), cyclododecanone (C12 cyclic ketone) and cycloundecanone (C11 cyclic ketone).

[2] = test system: monooxygenase and esterase on the S8C; experiment: Production of different chain length hydroxy acids from cyclic ketones by recombinant E. coli cosmid clone S8C (GC/MS); assay type: cell-based, Escherichia coli; conditions: cyclic ketone substrate at 250 mg/L
Procedure: Transformed XL1-Blue MR cells were grown in M9 medium with 0.4% glucose as sole carbon source. Substrate for conversion was added at early log phase (OD=0.2) and cells were allowed to grow at 30° C. for 20 additional hours. Cells were then frozen and thawed once, centrifiged, and supernatant was filtered through 0.2 μm filters. Filtrate was prepared for GC/MS analysis as described below.
Filtrate was first acidified to pH 2 using concentrated HCl. The acidified sample was extracted twice with methylene chloride or ethyl acetate. The extracts were combined and dried by adding anhydrous magnesium sulfate. Magnesium sulfate was then removed by filteration using Whatman 3MM filter paper and the remaining solvent in the filtrate was evaporated under a gentle stream of nitrogen. […]
Example 8 explores whether the cyclic substrates could be expanded to cyclic ketones of different chain length and whether corresponding hydroxy acids could be produced. […] Large amount of corresponding hydroxy acids were detected from S8C grown in the presence of C11, C12 and C13 cyclic ketones. Medium level of 15-hydroxy acid was detected from C15 cyclic ketone grown cells. Small amount of hydroxy acids was detected from cells grown on C6 and C10 cyclic ketones. […]

Structure (SMILES)	Growth of Rhodococcus ruber SC1 [1]	Corresponding Hydroxy Acid Produced by E. coli Cosmids [2]
O=C1CCCCC1 [C6, cyclohexanone]	does not grow	Small amount
O=C1CCCCCC1 [C7, cycloheptanone]	does not grow	
O=C1CCCCCCC1 [C8, cyclooctanone]	does not grow	
O=C1CCCCCCCCC1 [C10, cyclodecanone]	grows moderately well	Small amount
O=C1CCCCCCCCCC1 [C11, cycloundecanone]	grows well	
O=C1CCCCCCCCCCC1 [C12, cyclododecanone]	grows well	
O=C1CCCCCCCCCCCC1 [C13, cyclotridecanone]	grows well	
O=C1CCCCCCCCCCCCCC1 [C15, cyclopentadecanone]	grows well	
